How the values were obtained:
SCZ astrocytes = test: Potassium uptake (86Rb) by SCZ astrocytes; format: cell-based, human; settings: 86Rb uptake, 4 lines
Method: Potassium uptake. Astrocytes were plated onto poly-ornithine- and laminin-coated 24-well plates with 30,000 cells/well. For the potassium uptake assay, astrocytes were incubated with ^86Rb (1.0-3.3 μCi/well) for 15 minutes, and then they were washed three time with ice-cold artificial cerebrospinal fluid (aCSF, 500 μL/well). 0.5N NaOH (200 μL/well) was put into each well for cell lysis, which was put into 5 ml cocktail liquid (Ultima Gold, Fisher Scientific, 509050575) and measured by scintillation counter (Beckman Coulter, LS6500), and the results were normalized to both total protein (BCA Protein Assay Kit, Fisher Scientific, 23227) and cell number (Hemocytometer, Fisher Scientific, 02-671-54). […]
To address this hypothesis, qPCR was used to confirm whether these K+ channel-associated genes were dysregulated in SCZ glia. […] Next, functional K^+ uptake was assessed directly, in cultured SCZ- and CTR-derived astrocytes. […] Astrocytes from 4 different SCZ and 4 different CTR lines were then incubated with 86Rb, a surrogate monovalent cation for K^+ uptake (Larsen et al., “Contributions of the Na(+)/K(+)-ATPase, NKCC1, and Kir4.1 to Hippocampal K(+) Clearance and Volume Responses,” Glia 62:608-622 (2014), which is hereby incorporated by reference in its entirety), and rubidium uptake measured as a function of both cell number and total protein.

CTR astrocytes = test: Potassium uptake (86Rb) by CTR astrocytes; format: cell-based, human; settings: CTR glia/astrocytes, 86Rb uptake, 4 lines
Method: Potassium uptake. Astrocytes were plated onto poly-ornithine- and laminin-coated 24-well plates with 30,000 cells/well. For the potassium uptake assay, astrocytes were incubated with ^86Rb (1.0-3.3 μCi/well) for 15 minutes, and then they were washed three time with ice-cold artificial cerebrospinal fluid (aCSF, 500 μL/well). 0.5N NaOH (200 μL/well) was put into each well for cell lysis, which was put into 5 ml cocktail liquid (Ultima Gold, Fisher Scientific, 509050575) and measured by scintillation counter (Beckman Coulter, LS6500), and the results were normalized to both total protein (BCA Protein Assay Kit, Fisher Scientific, 23227) and cell number (Hemocytometer, Fisher Scientific, 02-671-54). The aCSF solution contained (in mM): 124 NaCl, 2.5 KCl, 1.75 NaH2PO4, 2 MgCl2, 2 CaCl2, 0.04 vitamin C, 10 glucose and 26 NaHCO3, pH 7.4.
To address this hypothesis, qPCR was used to confirm whether these K+ channel-associated genes were dysregulated in SCZ glia. […] Next, functional K^+ uptake was assessed directly, in cultured SCZ- and CTR-derived astrocytes. To obtain mature SCZ and CTR astrocyte cultures, CD44− sorted glial progenitors were cultured in base media supplemented with 10% fetal bovine serum (FBS) and 20 ng/ml BMP4 for 4 weeks, so as to potentiate the differentiation of mature, glial fibrillary acidic protein (GFAP)-expressing, fiber-bearing astrocytes (FIGS. 10A-10C). […] Astrocytes from 4 different SCZ and 4 different CTR lines were then incubated with 86Rb, a surrogate monovalent cation for K^+ uptake (Larsen et al., “Contributions of the Na(+)/K(+)-ATPase, NKCC1, and Kir4.1 to Hippocampal K(+) Clearance and Volume Responses,” Glia 62:608-622 (2014), which is hereby incorporated by reference in its entirety), and rubidium uptake measured as a function of both cell number and total protein.

Row | Molecule | K+ uptake (SCZ astrocytes) | K+ uptake (CTR astrocytes)
1 | CCCCNc1cc(C(=O)O)cc(S(N)(=O)=O)c1Oc1ccccc1 [bumetanide] | neither ouabain nor bumetanide affected | significantly inhibited
2 | tertiapin (ALCNCNRIIIPHMCWKKCGKK; UniProt P56587 1-21, looked up) [drug which targets Kir channels] |  | did not
3 | C[C@@H]1O[C@@H](O[C@H]2C[C@@H](O)[C@]3(CO)[C@H]4[C@H](O)C[C@]5(C)[C@@H](C6=CC(=O)OC6)CC[C@]5(O)[C@@H]4CC[C@]3(O)C2)[C@H](O)[C@H](O)[C@H]1O [ouabain] | neither ouabain nor bumetanide affected | significantly inhibited
